Source: the supplement of paper PMC10307832

Experiments:
Test in all cases: relative viability (nuclei count vs DMSO), 5 days (fraction); higher = more cells survive
[1] = compound: COc1cc2c(Oc3ccc4[nH]c(C)cc4c3F)ncnc2cc1OCCCN1CCCC1 [Cediranib] + Nc1ncn([C@H]2C[C@H](O)[C@@H](CO)O2)c(=O)n1 [Decitabine] (partner 2 µM)
How it was run: (§1)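 Lung cancer cell lines in 1536-well plates were dosed by pin tool the day after seeding, either with one drug alone or with a fixed anchor-drug dose plus five library-drug doses (not always all listed) in √10 steps. After 5 days, cells were fixed and their nuclei stained in one step (final 0.05% Triton X-100, 1% formaldehyde, 1 ug/ml Hoechst), then counted on 4× images. Relative viability is the nuclei count in treated wells divided by that in vehicle wells. Values are medians of duplicate plates.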

[2] = compound: COc1cc2c(Oc3ccc4[nH]c(C)cc4c3F)ncnc2cc1OCCCN1CCCC1 [Cediranib] + COc1cccc2cc(-c3nc([C@H]4CC[C@H](C(=O)O)CC4)n4ncnc(N)c34)[nH]c12 [OSI-027] (partner 0.5 µM)
How it was run: as §1

[3] = compound: O=C(C[C@H]1NCCC[C@@H]1O)Cn1cnc2cc(Br)c(Cl)cc2c1=O (racemic) [Halofuginone] + CS(=O)(=O)CCNCc1ccc(-c2ccc3ncnc(Nc4ccc(OCc5cccc(F)c5)c(Cl)c4)c3c2)o1 [Lapatinib] (partner 2 µM)
How it was run: as §1

[4] = compound: Nc1ncn([C@H]2C[C@H](O)[C@@H](CO)O2)c(=O)n1 [Decitabine] + Nc1nc2[nH]cc(CCc3ccc(C(=O)N[C@@H](CCC(=O)O)C(=O)O)cc3)c2c(=O)[nH]1 [Pemetrexed] (partner 0.2 µM)
How it was run: as §1

Cell Line | relative viability ([1]; first compound 0.04 µM) | relative viability ([1]; first compound 0.4 µM) | relative viability ([1]; first compound 1.265 µM) | relative viability ([1]; first compound 4 µM) | relative viability ([2]; first compound 0.04 µM) | relative viability ([2]; first compound 0.1265 µM) | relative viability ([2]; first compound 0.4 µM) | relative viability ([2]; first compound 1.265 µM) | relative viability ([2]; first compound 4 µM) | relative viability ([3]; first compound 0.001 µM) | relative viability ([3]; first compound 0.003162 µM) | relative viability ([3]; first compound 0.01 µM) | relative viability ([3]; first compound 0.03162 µM) | relative viability ([3]; first compound 0.1 µM) | relative viability ([4]; first compound 0.1265 µM) | relative viability ([4]; first compound 0.4 µM) | relative viability ([4]; first compound 1.265 µM) | relative viability ([4]; first compound 4 µM) | relative viability ([1]; first compound 0.1265 µM) | relative viability ([4]; first compound 0.04 µM)
PC-3 [JPC-3] | 0.804 | 0.777 | 0.737 | 0.753 | 0.777 | 0.824 | 0.73 | 0.688 | 0.627 | 0.466 | 0.428 | 0.436 | 0.511 | 0.461 | 0.845 | 0.439 | 0.528 | 0.586 | – | –
HCC-44 | 0.932 | 0.93 | 0.934 | 0.958 | – | – | 0.447 | 0.473 | 0.619 | 1.02 | 1.01 | 0.955 | 0.997 | 0.808 | 0.632 | 0.547 | 0.595 | 0.548 | 0.629 | 0.638
NCI-H2405 | 0.68 | 0.71 | 0.661 | 0.793 | 0.648 | 0.606 | 0.617 | 0.52 | 0.622 | 1.14 | 1.01 | 1.02 | 1.02 | 0.861 | 0.998 | 0.787 | 0.632 | 0.524 | 0.758 | 0.851
LXF-289 | 0.397 | 0.371 | 0.385 | 0.411 | 0.667 | 0.641 | 0.689 | 0.77 | 0.79 | 0.891 | 0.893 | 0.847 | 0.874 | 0.895 | 0.541 | 0.423 | 0.315 | 0.297 | – | 0.69
LOU-NH91 | 0.787 | 0.81 | 0.792 | 0.8 | 0.769 | 0.862 | 0.707 | 0.582 | 0.701 | 0.77 | 0.746 | 0.747 | 0.738 | 0.676 | 0.358 | 0.422 | 0.336 | 0.397 | 0.831 | 0.378
A549 | 0.449 | 0.272 | 0.258 | 0.319 | – | – | – | – | – | 0.993 | 0.973 | 0.928 | 0.603 | 0.203 | – | – | – | – | 0.115 | –
H3255 | 0.534 | 0.601 | – | 0.487 | 0.658 | – | 0.638 | 0.58 | 0.533 | 0.272 | 0.255 | 0.241 | 0.259 | 0.235 | 0.547 | 0.446 | 0.486 | 0.453 | – | 0.453
NCI-H1395 | 0.717 | 0.675 | 0.712 | 0.77 | 0.628 | 0.751 | 0.62 | 0.615 | 0.608 | 1.02 | 0.873 | 1.04 | 0.891 | 0.71 | 0.685 | 0.744 | 0.474 | 0.484 | 0.769 | 0.64
LC-2-ad | 0.803 | 0.784 | 0.744 | 0.822 | 0.874 | 0.731 | 0.821 | 0.762 | 0.835 | 0.98 | 1.02 | 0.93 | 0.874 | 0.726 | 0.255 | 0.27 | 0.239 | 0.266 | 0.779 | 0.288
NCI-H838 | 0.497 | 0.432 | 0.383 | 0.506 | 0.41 | 0.364 | 0.379 | 0.348 | 0.483 | 1.25 | 1.16 | 0.891 | 0.748 | 0.164 | 0.236 | 0.2 | 0.19 | 0.198 | 0.376 | 0.225
Calu-6 | – | – | – | – | – | – | – | – | – | 1.18 | 1 | 1.05 | 0.689 | 0.176 | – | – | – | – | – | –
NCI-H1648 | 0.44 | 0.448 | 0.48 | 0.481 | 0.284 | – | 0.259 | 0.272 | 0.246 | – | – | – | – | – | 0.582 | 0.506 | 0.483 | 0.435 | 0.501 | 0.637
LCLC-97TM1 | 0.234 | 0.223 | 0.196 | 0.248 | 0.605 | 0.332 | 0.518 | 0.508 | 0.566 | 0.72 | 0.881 | 1.02 | 0.754 | 0.825 | 0.134 | 0.0965 | 0.125 | 0.13 | – | 0.173
HCC-15 | 0.645 | 0.575 | 0.688 | 0.644 | 0.625 | – | 0.674 | 0.692 | 0.717 | 0.88 | 0.887 | 0.829 | 0.863 | 0.785 | 0.207 | 0.179 | 0.19 | 0.191 | 0.433 | 0.2
CAL-12T | – | – | – | – | 0.814 | 0.568 | 0.624 | 0.416 | 0.992 | 0.765 | 0.609 | – | 0.729 | 0.561 | 1.04 | 0.599 | 0.609 | 0.36 | – | 1.07
NCI-H727 | 0.818 | 0.793 | 0.894 | 0.909 | – | 0.486 | 0.523 | 0.468 | 0.617 | 0.704 | 0.676 | 0.949 | 0.798 | 0.508 | – | – | – | – | 0.692 | –
ABC-1 | 0.866 | 1.19 | 1.05 | 1.04 | 0.447 | 0.651 | 0.532 | – | 0.437 | 1.22 | 1.32 | 1.1 | 1.06 | 0.912 | – | – | – | – | 1.11 | –
NCI-H2023 | 0.212 | 0.229 | 0.234 | 0.266 | 0.342 | 0.402 | 0.374 | 0.385 | 0.415 | 0.8 | 0.809 | 0.874 | 0.494 | 0.0821 | 0.175 | 0.144 | 0.126 | 0.115 | 0.229 | 0.14
NCI-H2342 | 0.83 | 0.732 | 0.74 | 0.812 | 0.615 | 0.671 | 0.659 | 0.549 | 0.508 | – | – | – | – | – | 0.733 | 0.731 | 0.642 | 0.663 | 0.827 | 0.734
